Patent US8138191B2, “Inhibitor compounds and cancer treatment methods” (Critical Outcome Technologies Inc., priority 2007, dated 2012)

Key:
DMS114 cells [1] = assay: AKT/AKT2 siRNA then COTI-2, cell viability by MTT assay, DMS114; assay type: cell-based, human; conditions: DMS114, 500 nM COTI-2
Procedure: Cell cultures were maintained under regular tissue culture conditions and passaged 1-2 times a week as recommended by ATCC. For siRNA experiments the manufacturer's conditions for growth and transfection were followed. All siRNA reagents for AKT and AKT2 transfections were obtained from Cell Signaling.
Cells were treated for 48 h with 0-100 ng of AKT or AKT2 siRNA before incubation with COTI-2 at various concentrations (0-500 nM). Following incubation for 48 h, cell viability was determined by MTT assay.

[2] = Metabolic Stability (liver microsomes, dog, Beagle); assay type: in vitro ADME; conditions: 1.0E−06 M, 60 min
Procedure: Metabolic stability was determined in human (mixed gender and pool of 50) monkey (male Cynomolgus, pool of 6 or more), dog male, beagle, pool of 4 or more) and rat (male Sprague-Dawley, pool of 100 or more) liver microsomes. […] Four reference substrates (1 μM) were tested simultaneously with COTI-2. […] Peak areas corresponding to COTI-2 were recorded by HPLC-MS/MS. Metabolic stability, expressed as percent of COTI-2 remaining, was calculated by comparing the peak area of COTI-2 at 60 min to time zero.

in vitro = in vitro ADME
Procedure: (§1) Commercially obtained (Rockland Immunochemicals Inc.), non-sterile, species-specific plasma (human, monkey, and dog) with sodium anticoagulant added was utilized for this study. […] Dialysis membrane strips (12-14K MWCO) were presoaked in water and ethanol, rinsed and then kept in buffer until use. Following assembly of the 96-well dialysis apparatus, […] membrane strips placed between the dialysis and sample compartments. The dialysate compartment was loaded with 0.15 ml phosphate buffer was added to the dialysis side of each well. Plasma (unfiltered) was spiked with 10 μM COTI-2 (1% DMSO) and 0.15 ml added to the sample side of each well. After loading, samples are covered and incubated at 37° C. until equilibrium was reached (at least 8 hours). Equal volumes of sample were removed from the buffer and plasma sides of each well, diluted with acetonitrile/buffer and centrifuged. Also at this time an additional sample was prepared (in duplicate) by spiking COTI-2 in plasma at 10 μM, followed by sampling and diluting in acetonitrile/buffer in the same manner as the incubated plasma sample. This calibration sample served as the basis of a recovery determination. The supernatants were analyzed by HPLC-MS/MS and the peak response of COTI-2 in both dialysis and sample compartments, and in the calibration sample, were subsequently determined in two independent replicates. […] The HPLC conditions consist of a binary LC pump with autosampler, a C18 column (2×20 mm), and gradient elution. The percent bound to plasma/serum proteins and percent recovery of the compounds were calculated. The recovery determination serves as an indicator as to the reliability of the calculated protein binding value.

dog plasma = assay: in vitro; assay type: in vitro ADME; conditions: mixed breeds, 10 µM
Procedure: as §1

human plasma = assay: in vitro; assay type: in vitro ADME; conditions: 10 µM
Procedure: as §1

DMS114 cells [3] = assay: siRNA target knock-down with COTI-219, cell viability by trypan blue, DMS114; assay type: cell-based, human; conditions: DMS114, 500 nM, 48 h
Procedure: In brief, cells DMS114 and SHP77 cells were transfected with gene specific siRNA in the presence or absence of COTI-219 and cell viability determined after 24 to 48 h post-incubation using the trypan blue exclusion method.
Cell cultures were maintained under regular tissue culture conditions and passaged 1-2 times a week as recommended by ATCC. With the exception of the siRNA for Bim (Signal Silence Bim siRNA kit #6460 from Cell Signaling), all other siRNA reagents for gene knock-down experiments was obtained from Ambion (Silencer Negative Control #1 siRNA #AM4611, CDK2 Silencer Select #s204, HRAS Silencer Select #s807, Protein kinase C alpha Silencer Validated #301, MAPK3/Erk Silencer Pre-designed #214749, EGFR Silencer Select #s563, and ERBB2 Silencer Select #s611). […] The transfection method required optimization such that a knock-down of the target gene greater than ˜75% was achieved and confirmed by western blot analyses. […] Following an optimal knock-down level at >75%, 2×10^5 cells were incubated with 500 nM COTI-219 and number of viable cells was measured at 48 h.
Cell viability assays were performed 24 to 48 h following incubation with COTI-219 by the trypan blue exclusion method using a Beckman-Coulter Vi-CELL XR 2.03 automated cell counter. Routine laboratory methods were employed for the production of cellular lysates, protein quantitation, SDS-PAGE and western blotting. […]

| Structure (SMILES) | cytotoxicity after AKT2 knock-down by siRNA (DMS114 cells [1]) | Mean Parent Remaining [2] | recovery at 10 µM (in vitro; human, % Recovery 1st) | recovery at 10 µM (in vitro; human, % Recovery 2nd) | recovery at 10 µM (in vitro; human, % Recovery Mean) | recovery at 10 µM (in vitro; human, percent recovery) | recovery at 10 µM (in vitro; mixed breeds, dog, % Recovery 1st) | recovery at 10 µM (in vitro; mixed breeds, dog, % Recovery 2nd) | recovery at 10 µM (in vitro; mixed breeds, dog, % Recovery Mean) | recovery at 10 µM (in vitro; mixed breeds, dog, percent recovery) | % Protein Bound 1st (dog plasma) | % Protein Bound 2nd (dog plasma) | % Protein Bound Mean (dog plasma) | percent protein bound (dog plasma) | % Protein Bound 1st (human plasma) | % Protein Bound 2nd (human plasma) | % Protein Bound Mean (human plasma) | percent protein bound (human plasma) | target knock-downs suppressing the action of COTI-219 on apoptosis/cell growth (DMS114 cells [3]) |
| --- | --- | --- | --- | --- | --- | --- | --- | --- | --- | --- | --- | --- | --- | --- | --- | --- | --- | --- | --- |
| S=C(N/N=C1/CCCc2cccnc21)N1CCN(c2ccccn2)CC1 [COTI-2] | unable to exert additional significant cytotoxicity | 5% | 6.7% | 2.9% | 4.8% | < 50% | 42.6% | 32.8% | 37.7% | < 50% | 99.1% | 99.7% | 99.4% | > 99% | 99.8% | >99.9% | 99.8% | > 99% | – |
| CN1CCN(C(=S)NN=C2c3ncccc3-c3cccnc32)CC1 [COTI-219] | – | – | – | – | – | – | – | – | – | – | – | – | – | – | – | – | – | – | only the Ras knock-down was able to suppress the action of COTI-219 |
